Laboratory results from US9345682B2, “Inhibition of STAT3 signal transduction for human cancer therapy” (University of South Florida, priority 1999, dated 2016).

Legend:
MDA-MB-468 cells = assay: Cell growth of MDA-MB-468 breast carcinoma cells; type: cell-based, human
Description: FIG. 6: Src and JAK Inhibitors Block Growth and STAT3 Activation in Breast Carcinoma Cells. MDA-MD-468 cells are treated with inhibitors of EGF receptor (PD158780), Src (PD180970), or JAKs (AG490), and effects on cell growth (Panel A) and STAT3 DNA-binding activity (Panel B) are determined.
The involvement of these, and other, tyrosine kinases in STAT3 activation is tested using specific inhibitors of JAK family kinases, and the EGF receptor and Src family kinases.

U266 cells = assay: Fas-mediated apoptosis (Annexin V, flow cytometry) in U266 cells; type: cell-based, human
Description: For surface detection of the Fas receptor, 10^6 cells are suspended in […] PBS with 2.5 mg/ml mouse IgM (Sigma) and […] UB2 antibody (MBL) or IgG1, isotype control serum (Dako). Following 30 min incubation at room temperature, cells are washed with PBS, and incubated in the dark for 30 min with goat anti-mouse Ig-FITC. Fluorescence is measured on a FACScan flow cytometer and analyzed using CellQuest software (Becton Dickinson). For cell cycle analysis, 10^6 cells are fixed in ice-cold ethanol for a minimum of 2 h, washed with PBS, and stained with 5 mg/ml propidium iodide (PI) and […] at 37° C. for 30 min prior to analysis by flow cytometry. […] Apoptosis is measured by staining with Annexin V-FITC (Clontech) and flow cytometry analysis. Fas-specific death is calculated as (% Annexin V positive cells in the CH-11 treated population)−(% Annexin V positive cells in the IgM control population). Programmed cell death in cells transfected with the bicistronic green fluorescent protein vectors (pIRES-EGFP or pIRES-Stat3b) is analyzed after staining with Annexin V-PE (Pharmingen) by two color flow cytometry analysis. Apoptotic morphology of DAPI-stained nuclei and green/red fluorescence is confirmed by fluorescence microscopy.

8226 cells = assay: Fas-mediated apoptosis (Annexin V, flow cytometry) in 8226 cells; type: cell-based, human; conditions: IL-6-independent 8226 cells, AG490 treatment
Description: For surface detection of the Fas receptor, 10^6 cells are suspended in […] PBS with 2.5 mg/ml mouse IgM (Sigma) and […] UB2 antibody (MBL) or IgG1, isotype control serum (Dako). Following 30 min incubation at room temperature, cells are washed with PBS, and incubated in the dark for 30 min with goat anti-mouse Ig-FITC. Fluorescence is measured on a FACScan flow cytometer and analyzed using CellQuest software (Becton Dickinson). For cell cycle analysis, 10^6 cells are fixed in ice-cold ethanol for a minimum of 2 h, washed with PBS, and stained with 5 mg/ml propidium iodide (PI) and […] at 37° C. for 30 min prior to analysis by flow cytometry. Sensitivity to Fas-mediated apoptosis is determined by exposing cells to 500 ng/ml agonistic antibody (CH-11, MBL) or 100 ng/ml Fas ligand (Alexis) for 18-24 h. Apoptosis is measured by staining with Annexin V-FITC (Clontech) and flow cytometry analysis. Fas-specific death is calculated as (% Annexin V positive cells in the CH-11 treated population)−(% Annexin V positive cells in the IgM control population). Programmed cell death in cells transfected with the bicistronic green fluorescent protein vectors (pIRES-EGFP or pIRES-Stat3b) is analyzed after staining with Annexin V-PE (Pharmingen) by two color flow cytometry analysis. […]

Bcl-2 = Bcl-2 expression (RT-PCR, Western blot) in U266 cells; type: cell-based, human; conditions: AG490
Description: Cells are lysed in a buffer composed of 50 mM Tris-Cl, pH 7.4, 5 mM EDTA, 150 mM NaCl, and 0.5% Triton-X 100 containing 1 mg/ml leupeptin and aprotinin, and 1 mM PMSF. Protein content of the cell lysates is quantified by the Bradford assay (Bio-Rad), and […] total protein is dissolved in Laemmli SDS-PAGE sample buffer prior to separation by 10% SDS-PAGE. Proteins are transferred to PVDF membrane and Western blot analysis is performed by standard techniques with ECL detection (Amersham). The Bcl-xL antibody, clone 124 (Dako), is used at a 1:2000 dilution. The Bcl-xL, antibody, clone S-18 (Santa Cruz Biotechnology), is used at a 1:500 dilution. Blots are quantified by densitometry and expression levels were normalized to b-actin (Sigma).
Total RNA is isolated by lysis in guanidine isothiocyanate followed by centrifugation through a cesium chloride gradient. cDNA is prepared from 200 ng of total RNA in a […] reaction with AMV-RT (Boehringer-Mannheim). […] Tem ml of PCR products are electrophoresed on a 5% acrylamide gel and quantified by phosphorimaging using ImageQuant software (Molecular Dynamics).

[1] = system: IL-12-activated peritoneal macrophages; assay: Viability of IL-12-activated peritoneal macrophages (MTT); type: cell-based, mice; conditions: 50 mM AG-490
Description: In vitro IL-12 activation and AG-490 treatment of macrophages. Peritoneal macrophages (2×10^5/well) are incubated in medium supplemented with either PBS, or rIL-12 (2 ng/ml), or AG-490 ([…]). Forty-eight hours later, the cultures are renewed by addition of fresh medium with either AG-490 or rIL-12 or PBS. Activation of macrophages is determined by nitric oxide production. Macrophage viability is determined by cleavage of tetrazolium salt in an MTT assay.

[2] = system: myeloma cells with activated STAT3; assay: In vitro apoptosis assay of murine myeloma cells; type: cell-based
Description: In vitro apoptosis assay. After a 24 hours incubation with LIMEM medium containing […] AG-490, cells are stained with Annexin V-PE and 7-Amino-actinomycin D (PharMingen, San Diego, Calif.). Dual-color fluorescence is measured on a FACScan flow cytometer and analyzed using CellQuest software (Becton Dickinson, Mountain View, Calif.).

In the case of `N#C/C(=C\c1ccc(O)c(O)c1)C(=O)NCc1ccccc1` [AG490], the cell growth (MDA-MB-468 cells) is reported as “inhibition of cell growth”, the Fas-specific apoptosis (U266 cells; AG490 24 hours then CH-11 12 hours, 7 independent experiments) is reported as 18-41% and the cells undergoing apoptosis (U266 cells; AG490 24 hours then CH-11 additional 12 hours) is reported as “up to 90%”. For the same compound, the “sensitivity to Fas-mediated cell death” value (8226 cells) was “does not enhance”, the “expression of Bcl-2” value (Bcl-2) was “no effect” and the “cell death of IL-12-activated peritoneal macrophages” value [1] was “no cell death is detected”. For the same compound, the “apoptosis of myeloma cells” value [2] was “efficient apoptosis”.
